Patent publication US8232248B2, “Treatment of rheumatoid arthritis with mammal beta defensins” (Novozymes Adenium Biotech A/S, priority 2008, dated 2012)
Where no end group is shown, it is not given here.

Columns and labels:
[1] = tested on: TNF production from human peripheral blood mononuclear cells (PBMC); assay: TNF production from PBMC stimulated with LPS, LTA, PGN or Pam3CSK4, 24 h, Cytometric Bead Array; format: cell-based; settings: for TNF % of control / TNF: Table 18
Experimental: (§1) Peripheral blood was drawn from healthy volunteers (with approval from the relevant ethical committee in Denmark). Heparinized blood was diluted 1/1 v/v with RPMI and were subjected to Ficoll density centrifugation within 2 h of drawing. Plasma was collected from the top from individual donors and was kept on ice until it was used at 2% in the culture medium (autologous culture medium). Isolated PBMC were resuspended in autologous culture medium and seeded in 96-well culture plates with 255.000 cells per well in a total of 200 μl. […] The concentrations used for stimulation were optimized on 3 different donors in initial experiments, for LPS two different concentrations were used to be sure to be on a cytokine level that is possible to modulate. In some experiments PBMC were treated with Dexamethason and Indomethacin alone and together with LPS or LTA as a control on downregulation of inflammatory cytokines. The supernatants were collected after incubation at 37° C. for 24 hours, and stored at −80° C. until cytokine measurement. Viability was measured by Alamar Blue (Biosource, DALL 1100) in all experiments and in some cases also by MTS (Promega) according to manufacturer's instruction and was in some experiments also judged by counting of the cells by a Nucleocounter.
(§2) Cytokine production in supernatants was measured by flow cytometry with a human inflammation cytometric bead array (CBA) according to manufacturer's instructions (BD) on a FACSarray flow cytometer. The following cytokines were measured: IL-8, IL-1β, IL-10, TNF, IL-12 p70, IL-6. In some experiments, cytokines were measured by ELISA kits from R&D systems (IL-10, TNF-α, IL-1β) according to the manufacturer' instruction.
(§3) All experiments were performed at least twice, with representative results shown. The data presented are expressed as mean plus/minus standard deviation (SD). […] Differences were considered significant for p<0.05.
Example 3 was carried out essentially as described in Example 2. […]

[2] = tested on: IL-1β production from human peripheral blood mononuclear cells (PBMC); assay: IL-1β production from PBMC stimulated with LPS or LTA, 24 h, Cytometric Bead Array; format: cell-based; settings: Table 20
Experimental: as §1, §2, §3

[3] = tested on: IL-10 production from human peripheral blood mononuclear cells (PBMC); assay: IL-10 production from PBMC stimulated with LPS, LTA or PGN, 24 h, Cytometric Bead Array; format: cell-based; settings: Table 19
Experimental: as §1, §2, §3

[4] = tested on: IL-23, human PBMC; assay: IL-23 in supernatants of human PBMC, ELISA; format: cell-based; settings: Infliximab 1 μg/ml
Experimental: as §1
Moreover, the effect of rhBD2 on human monocyte-derived dendritic cells was also investigated.
Cell culture supernatants were collected and stored at −80° C. Amounts of IL-23 was measured by standard sandwich ELISA using commercially available antibodies and standards according to the manufacturer's protocols (eBioscience).
All experiments were performed at least twice, with representative results shown. The data presented are expressed as mean plus/minus standard deviation […]. […] Differences were considered significant for p<0.05.

[5] = tested on: TNF production from mouse peripheral blood mononuclear cells (PBMC); assay: TNF production from mouse PBMC, mouse inflammation CBA; format: cell-based
Experimental: Mouse peripheral blood mononuclear cells were isolated from blood of ten NMRI mice. In short, heparinized blood was diluted 1/1 v/v with RPMI and subjected to Ficoll density centrifugation within 2 h of drawing. Plasma was collected from the top and discarded. Isolated PBMC were resuspended in culture medium (RPMI 1640 (Gibco, 42401) w/1% penicillin and streptomycin and 1% L-Glutamine) and seeded in 96-well culture plates with 115.500 cells per well in a total of 200 μl. […] The supernatants were collected after incubation at 37° C. for 24 hours, and stored at −80° C. until cytokine measurement.
Cytokine production in supernatants was measured by flow cytometry with a mouse inflammation cytometric bead array (CBA) according to manufacturer's instructions (BD) on a FACSarray flow cytometer.

[6] = tested on: PBMC; assay: PBMC viability, Alamar Blue; format: cell-based, human; settings: 10 μg/ml and 40 μg/ml
Experimental: as §1

[7] = positive control, concentration not given, LPS 0.6 ng/ml
[8] = positive control, concentration not given, LPS 20 ng/ml
[9] = positive control, concentration not given, Medium, non-treated 0
[10] = test compound 1 μg/ml, LPS 0.6 ng/ml
[11] = test compound 1 μg/ml, LPS 0.6 ng/ml, non-treated 728
[12] = test compound 1 μg/ml, LPS 20 ng/ml
[13] = test compound 1 μg/ml, LPS 20 ng/ml, non-treated 2164
[14] = test compound 1 μg/ml, Medium, non-treated 1
[15] = test compound 10 μg/ml, LPS 0.6 ng/ml
[16] = test compound 10 μg/ml, LPS 20 ng/ml
[17] = test compound 40 μg/ml, LPS 0.6 ng/ml
[18] = test compound 40 μg/ml, LPS 20 ng/ml
[19] = test compound 1 μg/ml, LPS 0.6 ng/ml, non-treated 741
[20] = test compound 1 μg/ml, LPS 20 ng/ml, non-treated 2544
[21] = test compound 1 μg/ml, Medium, non-treated 0
[22] = test compound 10 μg/ml, Medium, non-treated 0
[23] = test compound 40 μg/ml, Medium, non-treated 0
[24] = test compound 1 μg/ml, LPS 0.6 ng/ml, non-treated 66

## COc1ccc2c(c1)c(CC(=O)O)c(C)n2C(=O)c1ccc(Cl)cc1 [Indomethacin, reference compound]
[1]; PBMC stimulated with LPS or LTA, Table 13
  TNF inhibition (positive controls): only inhibited TNF (Table 13) after stimulation with LTA

## Infliximab: anti-inflammatory compound included as positive control on downregulation of TNF [reference compound]
[1]; [7]
  TNF % of control: 0%
[1]; positive control, concentration not given, LPS 0.6 ng/ml, non-treated 728
  TNF: 0 pg/mL
[1]; [8]
  TNF % of control: 0%
[1]; positive control, concentration not given, LPS 20 ng/ml, non-treated 2164
  TNF: 0 pg/mL
[1]; positive control, concentration not given, Medium, non-treated 1
  TNF: 0 pg/mL
[2]; [7]
  IL-1β % of control: 86%
[2]; positive control, concentration not given, LPS 0.6 ng/ml, non-treated 741
  IL-1β: 636 pg/mL
[2]; [8]
  IL-1β % of control: 106%
[2]; positive control, concentration not given, LPS 20 ng/ml, non-treated 2544
  IL-1β: 2704 pg/mL
[2]; [9]
  IL-1β: 0 pg/mL
[3]; [7]
  IL-10 % of control: 69%
[3]; positive control, concentration not given, LPS 0.6 ng/ml, non-treated 66
  IL-10: 46 pg/mL
[3]; [8]
  IL-10 % of control: 56%
[3]; positive control, concentration not given, LPS 20 ng/ml, non-treated 111
  IL-10: 63 pg/mL
[3]; [9]
  IL-10: 0 pg/mL
[4]; Control (medium), non-treated 257
  IL-23: 227 pg/mL
[4]; LPS 0.6 ng/ml, non-treated 553
  IL-23: 356 pg/mL
[4]; LPS 20 ng/ml, non-treated 510
  IL-23: 373 pg/mL
[4]; LTA 5 μg/ml, non-treated 762
  IL-23: 349 pg/mL
[5]; Infliximab 1 μg/ml, LPS 20 ng/ml, untreated 2063
  TNF: 2119 pg/mL
[5]; Infliximab 1 μg/ml, Medium, untreated 578
  TNF: 530 pg/mL

## hBD1: human beta defensin 1, SEQ ID NO:1, obtained from Peptide Institute Inc. (DHYNCVSSGGQCLYSACPIFTKIQGTCYRGKAKCCK; ends and bridges not checked; cysteine pairing not given here; listed as Homo sapiens)
[1]; [10]
  TNF % of control: 65%
[1]; [11]
  TNF: 474 pg/mL
[1]; [12]
  TNF % of control: 64%
[1]; [13]
  TNF: 1395 pg/mL
[1]; [14]
  TNF: 1 pg/mL
[1]; [15]
  TNF % of control: 28%
[1]; test compound 10 μg/ml, LPS 0.6 ng/ml, non-treated 728
  TNF: 203 pg/mL
[1]; [16]
  TNF % of control: 61%
[1]; test compound 10 μg/ml, LPS 20 ng/ml, non-treated 2164
  TNF: 1311 pg/mL
[1]; test compound 10 μg/ml, Medium, non-treated 1
  TNF: 0 pg/mL
[1]; [17]
  TNF % of control: 13%
[1]; test compound 40 μg/ml, LPS 0.6 ng/ml, non-treated 728
  TNF: 91 pg/mL
[1]; [18]
  TNF % of control: 46%
[1]; test compound 40 μg/ml, LPS 20 ng/ml, non-treated 2164
  TNF: 999 pg/mL
[1]; test compound 40 μg/ml, Medium, non-treated 1
  TNF: 0 pg/mL
[2]; [10]
  IL-1β % of control: 69%
[2]; [19]
  IL-1β: 512 pg/mL
[2]; [12]
  IL-1β % of control: 82%
[2]; [20]
  IL-1β: 2087 pg/mL
[2]; [21]
  IL-1β: 0 pg/mL
[2]; [15]
  IL-1β % of control: 54%
[2]; test compound 10 μg/ml, LPS 0.6 ng/ml, non-treated 741
  IL-1β: 401 pg/mL
[2]; [16]
  IL-1β % of control: 75%
[2]; test compound 10 μg/ml, LPS 20 ng/ml, non-treated 2544
  IL-1β: 1913 pg/mL
[2]; [22]
  IL-1β: 0 pg/mL
[2]; [17]
  IL-1β % of control: 41%
[2]; test compound 40 μg/ml, LPS 0.6 ng/ml, non-treated 741
  IL-1β: 302 pg/mL
[2]; [18]
  IL-1β % of control: 63%
[2]; test compound 40 μg/ml, LPS 20 ng/ml, non-treated 2544
  IL-1β: 1599 pg/mL
[2]; [23]
  IL-1β: 0 pg/mL
[3]; [10]
  IL-10 % of control: 108%
[3]; [24]
  IL-10: 71 pg/mL
[3]; [12]
  IL-10 % of control: 85%
[3]; test compound 1 μg/ml, LPS 20 ng/ml, non-treated 111
  IL-10: 95 pg/mL
[3]; [21]
  IL-10: 0 pg/mL
[3]; [15]
  IL-10 % of control: 114%
[3]; test compound 10 μg/ml, LPS 0.6 ng/ml, non-treated 66
  IL-10: 76 pg/mL
[3]; [16]
  IL-10 % of control: 90%
[3]; test compound 10 μg/ml, LPS 20 ng/ml, non-treated 111
  IL-10: 100 pg/mL
[3]; [22]
  IL-10: 0 pg/mL
[3]; [17]
  IL-10 % of control: 104%
[3]; test compound 40 μg/ml, LPS 0.6 ng/ml, non-treated 66
  IL-10: 69 pg/mL
[3]; [18]
  IL-10 % of control: 102%
[3]; test compound 40 μg/ml, LPS 20 ng/ml, non-treated 111
  IL-10: 113 pg/mL
[3]; [23]
  IL-10: 0 pg/mL

## hBD3: human beta defensin 3, SEQ ID NO:3, obtained from Peptide Institute Inc.
[1]; [10]
  TNF % of control: 73%
[1]; [11]
  TNF: 528 pg/mL
[1]; [12]
  TNF % of control: 21%
[1]; [13]
  TNF: 451 pg/mL
[1]; [14]
  TNF: 0 pg/mL
[2]; [10]
  IL-1β % of control: 45%
[2]; [19]
  IL-1β: 331 pg/mL
[2]; [12]
  IL-1β % of control: 22%
[2]; [20]
  IL-1β: 568 pg/mL
[2]; [21]
  IL-1β: 0 pg/mL
[3]; [10]
  IL-10 % of control: 107%
[3]; [24]
  IL-10: 71 pg/mL
[3]; [12]
  IL-10 % of control: 137%
[3]; [21]
  IL-10: 0 pg/mL
[6]
  Toxicity to the cells: toxic to the cells

## mBD3: mouse beta defensin 3, SEQ ID NO:6, prepared with the same protocol as hBD2 (KINNPVSCLRKGGRCWNRCIGNTRQIGSCGVPFLKCCKRK; ends and bridges not checked; cysteine pairing not given here; listed as Mus musculus)
[1]; Table 23
  Secretion of TNF from human PBMCs: downregulating the secretion of TNF from human PBMCs to the same extend as hBD2 and dexamethason
[5]; mBD3 1 μg/ml, LPS 20 ng/ml, untreated 2063
  TNF: 1600 pg/mL
[5]; mBD3 1 μg/ml, Medium, untreated 578
  TNF: 347 pg/mL
[5]; mBD3 10 μg/ml, LPS 20 ng/ml, untreated 2063
  TNF: 297 pg/mL
[5]; mBD3 10 μg/ml, Medium, untreated 578
  TNF: 180 pg/mL
[5]; mBD3 100 μg/ml, LPS 20 ng/ml, untreated 2063
  TNF: 195 pg/mL
[5]; mBD3 100 μg/ml, Medium, untreated 578
  TNF: 182 pg/mL
